From patent US8859535B2, “Hydroxy substituted isoquinolinone derivatives” (Novartis AG, priority 2011, dated 2014) come the findings set out here.

Assay [1] deals with T1, human MDM2 protein (amino acids 2-188) (Homo sapiens, UniProt Q00987).
T1 construct: human MDM2 protein (amino acids 2-188); made in house
The assay can be described thus: p53-MDM2 TR-FRET assay (p53-MDM2 Assay 1). In kind it is binding. To be noted: 1.25 nM MDM2-biotinylated, 10 nM Cy5-p53 peptide; read-out: IC50 (μM) of p53-Hdm2 inhibition (TR-FRET) Assay 1. On the procedure:
(§1) Time Resolved Fluorescence Energy Transfer (TR-FRET) Assay
(§2) The inhibition of p53-MDM2 and p53-MDM4 interactions is measured by time resolved fluorescence energy transfer (TR-FRET). Fluorescence energy transfer (or Foerster resonance energy transfer) describes an energy transfer between donor and acceptor fluorescent molecules. For this assay, human MDM2 protein (amino acids 2-188) and human MDM4 protein (amino acids 2-185), tagged with a C-terminal biotin moiety, are used in combination with a Europium labeled streptavidin (Perkin Elmer, Inc., Waltham, Mass., USA) serving as the donor fluorophore. The p53 derived, Cy5 labeled peptide Cy5-TFSDLWKLL (p53 aa18-26) is the energy acceptor. Upon excitation of the donor molecule at 340 nm, binding interaction between MDM2 or MDM4 and the p53 peptide induces energy transfer and enhanced response at the acceptor emission wavelength at 665 nm. Disruption of the formation of the p53-MDM2 or p53-MDM4 complex due to an inhibitor molecule binding to the p53 binding site of MDM2 or MDM4 results in increased donor emission at 620 nm. The ratiometric FRET assay readout is calculated from the raw data of the two distinct fluorescence signals measured in time resolved mode (fluorescence 665 nm/fluorescence 620 nm×1000).
(§3) After addition of 1.25 nM MDM2-biotinylated or 2.5 nM MDM4-biotinylated (internal preparations), and 0.625 nM Europium labeled streptavidin (Perkin Elmer), the solution is pre-incubated for 15 minutes at room temperature, then 10 nM Cy5-p53 peptide (internal preparation) is added before an incubation at room temperature for 15 minutes prior to reading the plate. For measurement of samples, a Victor II microplate reader (Perkin Elmer) is used with the following settings: Excitation 340 nm, Emission Donor 620 nm and Emission Acceptor 665 nm. IC50 values are calculated by curve fitting using XLfit. If not specified, reagents are purchased from Sigma-Aldrich Chemie GmBH, Buchs, Switzerland.
(§4) This assay was used to evaluate compounds displaying inhibition of p53-MDM2 interaction and p53-MDM4 interaction at IC50s of 0.005 to 50 μM (p53-MDM2 Assay 1 and p53-MDM4 Assay 1, respectively). For selected compounds displaying IC50s between […] on MDM2, a slightly modified assay is used with the following adaptations: 0.1 nM MDM2, 0.1 nM Europium labeled streptavidin and Tecan genios Pro is used as a microplate reader for the fluorescence measurements (p53-MDM2 Assay 2).
In general terms: In TR-FRET formats the signal depends on donor and acceptor labels being close together.

Assay [2] concerns the target T2, human MDM4 protein (amino acids 2-185) (Homo sapiens, UniProt O15151).
T2 construct: human MDM4 protein (amino acids 2-185); made in house
T2 sequence (O15151 2-185): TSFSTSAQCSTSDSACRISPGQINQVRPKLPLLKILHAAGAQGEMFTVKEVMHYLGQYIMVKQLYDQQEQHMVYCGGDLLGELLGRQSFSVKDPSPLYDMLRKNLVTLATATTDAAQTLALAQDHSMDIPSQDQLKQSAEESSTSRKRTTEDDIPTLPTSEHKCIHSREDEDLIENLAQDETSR
Description: p53-MDM4 TR-FRET assay (p53-MDM4 Assay 1). The class given is binding. The note with it: 2.5 nM MDM4-biotinylated, 10 nM Cy5-p53 peptide; read-out: IC50 (μM) of p53-Hdm4 inhibition (TR-FRET) Assay 1. The protocol:
as §1, §2, §3, §4

T1 sequence (Q00987 2-188): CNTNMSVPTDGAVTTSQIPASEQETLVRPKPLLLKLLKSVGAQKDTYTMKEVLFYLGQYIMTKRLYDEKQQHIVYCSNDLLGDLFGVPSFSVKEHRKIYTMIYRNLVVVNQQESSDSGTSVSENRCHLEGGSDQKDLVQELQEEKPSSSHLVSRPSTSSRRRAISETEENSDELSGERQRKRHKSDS

For the compound `COCCOc1cc2c(cc1OC(C)C)[C@H](c1ccc(Cl)cc1)N(c1ccc(C(C)(O)C3CCOCC3)cc1)C(=O)C2` (stereo partly drawn) [Example 145, (S)-1-(4-Chloro-phenyl)-2-{4-[1-hydroxy-1-(tetrahydro-pyran-4-yl)-ethyl]-phenyl}-7-isopropoxy-6-(2-methoxy-ethoxy)-1,4-dihydro-2H-isoquinolin-3-one], the IC50 (usually the concentration needed to halve the response being measured) in assay [1] came to 0.0083 µM; in assay [2] it was 3 µM.

Take `COc1cc2c(cc1OC(C)C)[C@H](c1ccc(Cl)cc1)N(c1ccc(C3(O)CCCC3)cc1)C(=O)C2` [Example 50, (S)-1-(4-Chloro-phenyl)-2-[4-(1-hydroxy-cyclopentyl)-phenyl]-7-isopropoxy-6-methoxy-1,4-dihydro-2H-isoquinolin-3-one]: the IC50 in assay [1] was 0.246 µM; in assay [2], 90.2 µM.

With `COc1cc2c(cc1OC(C)C)[C@H](c1ccc(Cl)cc1)N(c1ccc(C(C)(O)C34CCC(CC3)C4)cc1)C(=O)C2` (stereo partly drawn) [Example 138, (S)-2-[4-(1-Bicyclo[2.2.1]hept-1-yl-1-hydroxy-ethyl)-phenyl]-1-(4-chloro-phenyl)-7-isopropoxy-6-methoxy-1,4-dihydro-2H-isoquinolin-3-one], the figures for the IC50 in assay [1] and in assay [2] were 0.0062 µM and 7.54 µM, respectively.

`COc1cc2c(cc1OC(C)C)[C@H](c1ccc(Cl)cc1)N(c1ccc(C(C)(O)C3CCC(F)(F)CC3)cc1)C(=O)C2` (stereo partly drawn) [Example 45, (S)-1-(4-Chloro-phenyl)-2-{4-[1-(4,4-difluoro-cyclohexyl)-1-hydroxy-ethyl]-phenyl}-7-isopropoxy-6-methoxy-1,4-dihydro-2H-isoquinolin-3-one]: the IC50 was found to be 0.0089 µM in assay [1] and 17.4 µM in assay [2].

On to `COc1cc2c(cc1OC(C)C)[C@H](c1ccc(Cl)cc1)N(c1ccc(C(C)(O)c3ccncc3)cn1)C(=O)C2` (stereo partly drawn) [Example 12, (S)-1-(4-Chloro-phenyl)-2-[5-(1-hydroxy-1-pyridin-4-yl-ethyl)-pyridin-2-yl]-7-isopropoxy-6-methoxy-1,4-dihydro-2H-isoquinolin-3-one], for which the IC50 worked out at 0.0195 µM in assay [1] and 23.9 µM in assay [2].

As to `COc1cc2c(cc1OC(C)C)[C@H](c1ccc(Cl)cc1)N(c1ccc(C(C)(O)C3CC4CCC(C3)S4(=O)=O)cc1)C(=O)C2` (mixture of isomers) [Example 172, (S)-1-(4-Chloro-phenyl)-2-{4-[1-(8,8-dioxo-8-thia-bicyclo[3.2.1]oct-3-yl)-1-hydroxy-ethyl]-phenyl}-7-isopropoxy-6-methoxy-1,4-dihydro-2H-isoquinolin-3-one], the IC50 came to 0.0079 µM in assay [1] and 8.05 µM in assay [2].

`COc1cc2c(cc1OC(C)C)[C@H](c1ccc(Cl)cc1)N(c1ccc(C(C)(O)C3CN(CC(F)(F)F)C3)cc1)C(=O)C2` (stereo partly drawn) [Example 74, (S)-1-(4-Chloro-phenyl)-2-(4-{1-hydroxy-1-[1-(2,2,2-trifluoro-ethyl)-azetidin-3-yl]-ethyl}-phenyl)-7-isopropoxy-6-methoxy-1,4-dihydro-2H-isoquinolin-3-one]: the IC50 in assay [1] was found to be 0.0179 µM; in assay [2] it was 18 µM.

For `COc1cc2c(cc1OC(C)C)[C@H](c1ccc(Cl)cc1)N(c1ccc(C(C)(O)C3CN(C(C)C)C3)cc1)C(=O)C2` (stereo partly drawn) [Example 72, (S)-1-(4-Chloro-phenyl)-2-{4-[1-hydroxy-1-(1-isopropyl-azetidin-3-yl)-ethyl]-phenyl}-7-isopropoxy-6-methoxy-1,4-dihydro-2H-isoquinolin-3-one], the figures for the IC50 in assay [1] and in assay [2] were 0.0234 µM and 18.4 µM, respectively.

With `COc1cc2c(cc1OC(C)C)[C@H](c1ccc(Cl)cc1)N(c1ccc([C@](C)(O)C3CCS(=O)(=O)CC3)cc1)C(=O)C2` [Example 167, (S)-1-(4-Chloro-phenyl)-2-{4-[(R)-1-(1,1-dioxo-hexahydro-1-thiopyran-4-yl)-1-hydroxy-ethyl]-phenyl}-7-isopropoxy-6-methoxy-1,4-dihydro-2H-isoquinolin-3-one], the IC50 in assay [1] was 0.125 µM; in assay [2] it was 51.1 µM.
